Experiments:
DDR2 [1] = target: T1, DDR2 (Homo sapiens, UniProt Q16832); test: DDR2 binding assay (LanthaScreen Europium Kinase Binding assay); design: purchased Life Technologies; details: binding assay, 5 nM DDR2, 10 nM Kinase Tracer 178; Ki from IC50 by Cheng-Prusoff; read-out: Ki DDR2
T1 sequence (Q16832 22-855): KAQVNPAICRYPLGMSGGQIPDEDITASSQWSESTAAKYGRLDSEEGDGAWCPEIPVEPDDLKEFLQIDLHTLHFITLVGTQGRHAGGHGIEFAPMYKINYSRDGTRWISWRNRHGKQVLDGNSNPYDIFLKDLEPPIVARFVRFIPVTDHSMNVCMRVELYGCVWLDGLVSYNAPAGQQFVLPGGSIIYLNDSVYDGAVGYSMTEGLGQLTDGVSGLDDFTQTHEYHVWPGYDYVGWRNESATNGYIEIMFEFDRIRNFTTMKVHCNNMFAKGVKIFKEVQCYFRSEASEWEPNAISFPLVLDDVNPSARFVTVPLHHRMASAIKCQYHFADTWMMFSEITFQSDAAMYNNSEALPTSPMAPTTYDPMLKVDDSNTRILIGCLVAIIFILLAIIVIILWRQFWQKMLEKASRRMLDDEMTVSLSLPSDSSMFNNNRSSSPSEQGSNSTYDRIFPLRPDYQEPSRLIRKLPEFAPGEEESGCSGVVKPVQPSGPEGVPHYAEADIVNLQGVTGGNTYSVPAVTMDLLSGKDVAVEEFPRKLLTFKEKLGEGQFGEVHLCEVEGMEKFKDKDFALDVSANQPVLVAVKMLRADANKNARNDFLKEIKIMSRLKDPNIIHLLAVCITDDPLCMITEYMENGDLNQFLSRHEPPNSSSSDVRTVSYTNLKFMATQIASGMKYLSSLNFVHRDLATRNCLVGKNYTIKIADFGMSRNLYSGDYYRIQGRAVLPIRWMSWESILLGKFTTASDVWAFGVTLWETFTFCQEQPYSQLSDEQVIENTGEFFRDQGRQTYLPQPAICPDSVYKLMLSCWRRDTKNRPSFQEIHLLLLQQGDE
Outline: (§1)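 Compounds incubated 1 h at room temperature with 5 nM kinase, Kinase Tracer 178 (20 nM for DDR1, 10 nM for DDR2) and 2 nM Eu-anti-GST antibody in pH 7.5 HEPES/MgCl2/EGTA/BRIJ35 buffer. TR-FRET 665/615 nm ratio read after 340 nm excitation; IC50 from 4-parameter fit, converted to Ki by Cheng-Prusoff.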

DDR1 [2] = target: T2, DDR1 (Homo sapiens, UniProt Q08345); test: DDR1 cell based assay (PathHunter U2OS DDR1 assay); design: host or cells: U2OS-DDR1 (PathHunter); details: U2OS-DDR1 cells, bovine Type II Collagen 20 μg/ml
T2 sequence (Q08345 19-913): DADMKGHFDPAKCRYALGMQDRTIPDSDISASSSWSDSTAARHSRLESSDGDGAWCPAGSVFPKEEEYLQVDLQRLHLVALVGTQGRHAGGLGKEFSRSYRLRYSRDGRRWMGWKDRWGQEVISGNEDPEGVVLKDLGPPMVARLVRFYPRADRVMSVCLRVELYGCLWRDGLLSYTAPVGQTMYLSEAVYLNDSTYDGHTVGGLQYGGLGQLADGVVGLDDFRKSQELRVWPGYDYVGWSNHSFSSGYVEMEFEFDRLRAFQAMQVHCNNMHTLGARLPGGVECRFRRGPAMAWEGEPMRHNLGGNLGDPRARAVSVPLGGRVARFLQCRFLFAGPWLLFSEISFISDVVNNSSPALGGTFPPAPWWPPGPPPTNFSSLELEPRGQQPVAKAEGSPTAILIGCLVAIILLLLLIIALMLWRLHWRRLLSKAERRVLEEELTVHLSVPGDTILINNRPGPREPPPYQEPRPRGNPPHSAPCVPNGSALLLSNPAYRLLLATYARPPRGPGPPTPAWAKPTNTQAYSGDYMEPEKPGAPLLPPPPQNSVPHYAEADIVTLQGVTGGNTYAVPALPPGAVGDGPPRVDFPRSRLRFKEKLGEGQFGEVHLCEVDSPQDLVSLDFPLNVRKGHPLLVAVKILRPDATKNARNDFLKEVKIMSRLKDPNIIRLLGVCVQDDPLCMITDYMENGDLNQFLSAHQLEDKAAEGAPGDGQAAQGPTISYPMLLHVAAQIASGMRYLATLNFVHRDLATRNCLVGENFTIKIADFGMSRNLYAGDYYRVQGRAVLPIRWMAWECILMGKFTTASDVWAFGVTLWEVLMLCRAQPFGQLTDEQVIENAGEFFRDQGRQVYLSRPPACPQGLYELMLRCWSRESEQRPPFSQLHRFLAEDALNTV
Outline: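 U2OS-DDR1 PathHunter cells preincubated 30 min with compound, then stimulated overnight at 37 °C with 20 μg/ml bovine type II collagen. Luminescent complementation signal read after 1 h detection at room temperature; normalized to vehicle (0%) and collagen-only (100%) controls, IC50 from variable-slope sigmoidal fit.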

DDR1 [3] = target: T2, DDR1; test: DDR1 binding assay (LanthaScreen Europium Kinase Binding assay); design: purchased Carna Biosciences; details: binding assay, 5 nM DDR1, 20 nM Kinase Tracer 178; Ki from IC50 by Cheng-Prusoff; read-out: Ki DDR1
Outline: as §1

DDR2 [4] = target: T1, DDR2; test: DDR2 cell based assay (phospho-ELISA in HEK293T-DDR2 recombinant cells); design: expressed in transfected cells; host or cells: HEK293T-DDR2 recombinant cells; details: bovine Type II Collagen 50 μg/ml
Outline: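 HEK293T-DDR2 cells, serum-starved 3 h, treated with compounds 30 min before 3 h stimulation with bovine type II collagen at 50 μg/ml. Lysate phospho-DDR2 measured by ELISA, normalized to maximal-inhibition and collagen II (20 μg/ml) controls; IC50 from variable-slope sigmoidal fit.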

Row | SMILES | Ki (DDR2 [1]) [nM] | IC50 (DDR1 [2]) [nM] | Ki (DDR1 [3]) [nM] | IC50 (DDR2 [4]) [nM]
1 | Cc1n[nH]c2ncc(CN3CCc4c(C(=O)Nc5cncc(C(F)(F)F)c5)csc4C3)cc12 [Example 150, 6-((3-methyl-1H-pyrazolo[3,4-b]pyridin-5-yl)methyl)-N-(5-(trifluoromethyl)pyridin-3-yl)-4,5,6,7-tetrahydrothieno[2,3-c]pyridine-3-carboxamide] | < 25 | < 25 | < 25 | < 25
2 | O=C(Nc1cncc(C(F)(F)F)c1)c1csc2c1CCN(Cc1cnc3[nH]ncc3c1)C2 [Example 151, 6-(1H-pyrazolo[3,4-b]pyridin-5-ylmethyl)-N-[5-(trifluoromethyl)-3-pyridyl]-5,7-dihydro-4H-thieno[2,3-c]pyridine-3-carboxamide] | < 25 | < 25 | < 25 | < 25
3 | O=C(Nc1cncc(C(F)(F)F)c1)c1csc2c1CCN(Cc1cnc3ccnn3c1)C2 [Example 152, 6-(pyrazolo[1,5-a]pyrimidin-6-ylmethyl)-N-(5-(trifluoromethyl)pyridin-3-yl)-4,5,6,7-tetrahydrothieno[2,3-c]pyridine-3-carboxamide] | < 25 | < 25 | < 25 | < 25
4 | O=C(Nc1cncc(C(F)(F)F)c1)c1csc2c1CCN(Cc1cnc3cnccn13)C2 [Example 153, 6-(imidazo[1,2-a]pyrazin-3-ylmethyl)-N-(5-(trifluoromethyl)pyridin-3-yl)-4,5,6,7-tetrahydrothieno[2,3-c]pyridine-3-carboxamide] | < 25 | < 25 | < 25 | < 25
5 | CN(C)[C@@H]1CCN(Cc2cc(NC(=O)c3csc4c3CCN(Cc3cnc5[nH]ncc5c3)C4)cc(C(F)(F)F)c2)C1 [Example 158, (R)-6-((1H-pyrazolo[3,4-b]pyridin-5-yl)methyl)-N-(3-((3-(dimethylamino)pyrrolidin-1-yl)methyl)-5-(trifluoromethyl)phenyl)-4,5,6,7-tetrahydrothieno[2,3-c]pyridine-3-carboxamide] | < 25 | < 25 | < 25 | 25 to 50
6 | CN1CCN(c2ccc3ncc(C(=O)N4CCc5c(C(=O)Nc6cncc(C(F)(F)F)c6)csc5C4)n3c2)CC1 [Example 165, 6-(6-(4-methylpiperazin-1-yl)imidazo[1,2-a]pyridine-3-carbonyl)-N-(5-(trifluoromethyl)pyridin-3-yl)-4,5,6,7-tetrahydrothieno[2,3-c]pyridine-3-carboxamide] | < 25 | < 25 | < 25 | 25 to 50
7 | O=C(Nc1cc(F)cc(OC(F)(F)F)c1)c1csc2c1CCN(Cc1cnc3[nH]ncc3c1)C2 [Example 174, 6-((1H-pyrazolo[3,4-b]pyridin-5-yl)methyl)-N-(3-fluoro-5-(trifluoromethoxy)phenyl)-4,5,6,7-tetrahydrothieno[2,3-c]pyridine-3-carboxamide] | < 25 | < 25 | < 25 | 50 to 80
8 | N#Cc1cc(NC(=O)c2csc3c2CCN(C(=O)c2cnn4ccncc24)C3)cc(C(F)(F)F)c1 [Example 184, N-(3-cyano-5-(trifluoromethyl)phenyl)-6-(pyrazolo[1,5-a]pyrazine-3-carbonyl)-4,5,6,7-tetrahydrothieno[2,3-c]pyridine-3-carboxamide] | < 25 | < 25 | < 25 | 25 to 50

Further lines, results first:

Row | Ki (DDR2 [1]) [nM] | IC50 (DDR1 [2]) [nM] | Ki (DDR1 [3]) [nM] | IC50 (DDR2 [4]) [nM] | SMILES
9 | < 25 | < 25 | < 25 | < 25 | Cc1cn(-c2cc(NC(=O)c3csc4c3CCN(C(=O)c3cnc5ccccn35)C4C)cc(C(F)(F)F)c2)cn1 (centres unmarked) [Example 98, 6-(imidazo[1,2-a]pyridine-3-carbonyl)-7-methyl-N-(3-(4-methyl-1H-imidazol-1-yl)-5-(trifluoromethyl)phenyl)-4,5,6,7-tetrahydrothieno[2,3-c]pyridine-3-carboxamide]
10 | < 25 | < 25 | < 25 | < 25 | C[C@@H]1c2scc(C(=O)Nc3cccc(C(F)(F)F)c3)c2CCN1C(=O)c1cnc2ccccn12 [Example 100, (R)-6-(imidazo[1,2-a]pyridine-3-carbonyl)-7-methyl-N-(3-(trifluoromethyl)phenyl)-4,5,6,7-tetrahydrothieno[2,3-c]pyridine-3-carboxamide]
11 | < 25 | < 25 | < 25 | < 25 | Cc1cn(-c2cc(NC(=O)c3csc4c3CCN(C(=O)c3cnc5ccccn35)[C@@H]4C)cc(C(F)(F)F)c2)cn1 [Example 101, (R)-6-(imidazo[1,2-a]pyridine-3-carbonyl)-7-methyl-N-(3-(4-methyl-1H-imidazol-1-yl)-5-(trifluoromethyl)phenyl)-4,5,6,7-tetrahydrothieno[2,3-c]pyridine-3-carboxamide]
12 | < 25 | < 25 | < 25 | 25 to 50 | CC1(C)c2scc(C(=O)Nc3cccc(C(F)(F)F)c3)c2CCN1C(=O)c1cnc2ccccn12 [Example 102, 6-(imidazo[1,2-a]pyridine-3-carbonyl)-7,7-dimethyl-N-(3-(trifluoromethyl)phenyl)-4,5,6,7-tetrahydrothieno[2,3-c]pyridine-3-carboxamide]
13 | < 25 | < 25 | < 25 | 25 to 50 | CC1c2scc(C(=O)Nc3cccc(C(F)(F)F)c3)c2CCN1Cc1cnc2cnccn12 (centres unmarked) [Example 103, 6-(imidazo[1,2-a]pyrazin-3-ylmethyl)-7-methyl-N-(3-(trifluoromethyl)phenyl)-4,5,6,7-tetrahydrothieno[2,3-c]pyridine-3-carboxamide]
14 | < 25 | < 25 | < 25 | 25 to 50 | O=C(Nc1cncc(C(F)(F)F)c1)c1csc2c1CCN(C(=O)c1cnn3ccncc13)C2 [Example 108, 6-(pyrazolo[1,5-a]pyrazine-3-carbonyl)-N-(5-(trifluoromethyl)pyridin-3-yl)-4,5,6,7-tetrahydrothieno[2,3-c]pyridine-3-carboxamide]
15 | < 25 | < 25 | < 25 | < 25 | CC(C)(C)c1cc(NC(=O)c2csc3c2CCN(Cc2cnc4[nH]ncc4c2)C3)on1 [Example 133, 6-((1H-pyrazolo[3,4-b]pyridin-5-yl)methyl)-N-(3-(tert-butyl)isoxazol-5-yl)-4,5,6,7-tetrahydrothieno[2,3-c]pyridine-3-carboxamide]
16 | < 25 | < 25 | < 25 | < 25 | CC(C)(C)c1cc(NC(=O)c2csc3c2CCN(Cc2cnc4[nH]ncc4c2)C3)no1 [Example 134, 6-((1H-pyrazolo[3,4-b]pyridin-5-yl)methyl)-N-(5-(tert-butyl)isoxazol-3-yl)-4,5,6,7-tetrahydrothieno[2,3-c]pyridine-3-carboxamide]
17 | < 25 | < 25 | < 25 | < 25 | CN1CCN(c2ccc3ncc(C(=O)N4CCc5c(C(=O)Nc6cccc(C(F)(F)F)c6)csc5C4)n3c2)CC1 [Example 136, 6-(6-(4-methylpiperazin-1-yl)imidazo[1,2-a]pyridine-3-carbonyl)-N-(3-(trifluoromethyl)phenyl)-4,5,6,7-tetrahydrothieno[2,3-c]pyridine-3-carboxamide]

— patent publication US20240391936A1, “TETRAHYDROTHIENO PYRIDINE DERIVATIVES AS DDRS INHIBITORS” (CHIESI FARMACEUTICI S.P.A., priority 2021, published 2024)
